Laboratory results as given in ChEMBL document CHEMBL4414672, “Synthesis of certain benzothieno[3,2-d]pyrimidine derivatives as a selective SIRT2 inhibitors” (Eur J Med Chem, 2020).

What was measured:
Format in all cases: functional
COLO 205 = experiment: Growth inhibition of human COLO205 cells at 10^-5 M incubated for 48 hrs by sulforhodamine B assay; settings: COLO 205, 48 h, read-out: GI
M14 = experiment: Growth inhibition of human M14 cells at 10^-5 M incubated for 48 hrs by sulforhodamine B assay; settings: M14, 48 h, read-out: GI
UACC-62 = experiment: Growth inhibition of human UACC62 cells at 10^-5 M incubated for 48 hrs by sulforhodamine B assay; settings: UACC-62, 48 h, read-out: GI
HCC 2998 = experiment: Growth inhibition of human HCC2998 cells at 10^-5 M incubated for 48 hrs by sulforhodamine B assay; settings: HCC 2998, 48 h, read-out: GI
NCI-H322M = experiment: Growth inhibition of human NCI-H322M cells at 10^-5 M incubated for 48 hrs by sulforhodamine B assay; settings: read-out: GI
DU-145 = experiment: Growth inhibition of human DU145 cells at 10^-5 M incubated for 48 hrs by sulforhodamine B assay; settings: DU-145, 48 h, read-out: GI
EKVX = experiment: Growth inhibition of human EKVX cells at 10^-5 M incubated for 48 hrs by sulforhodamine B assay; settings: read-out: GI
U-251 = experiment: Growth inhibition of human U251 cells at 10^-5 M incubated for 48 hrs by sulforhodamine B assay; settings: U-251, 48 h, read-out: GI
OVCAR-3 = experiment: Growth inhibition of human OVCAR3 cells at 10^-5 M incubated for 48 hrs by sulforhodamine B assay; settings: OVCAR-3, 48 h, read-out: GI
HOP-92 = experiment: Growth inhibition of human HOP92 cells at 10^-5 M incubated for 48 hrs by sulforhodamine B assay; settings: HOP-92, 48 h, read-out: GI
MCF7 = experiment: Growth inhibition of human MCF7 cells at 10^-5 M incubated for 48 hrs by sulforhodamine B assay; settings: MCF7, 48 h, read-out: GI
ACHN = experiment: Growth inhibition of human ACHN cells at 10^-5 M incubated for 48 hrs by sulforhodamine B assay; settings: read-out: GI
SW-620 = experiment: Growth inhibition of human SW620 cells at 10^-5 M incubated for 48 hrs by sulforhodamine B assay; settings: SW-620, 48 h, read-out: GI
NCI-H23 = experiment: Growth inhibition of human NCI-H23 cells at 10^-5 M incubated for 48 hrs by sulforhodamine B assay; settings: NCI-H23, 48 h, read-out: GI
K562 = experiment: Growth inhibition of human K562 cells at 10^-5 M incubated for 48 hrs by sulforhodamine B assay; settings: K562, 48 h, read-out: GI
A498 = experiment: Growth inhibition of human A498 cells at 10^-5 M incubated for 48 hrs by sulforhodamine B assay; settings: A498, 48 h, read-out: GI
RXF 393 = experiment: Growth inhibition of human RXF393 cells at 10^-5 M incubated for 48 hrs by sulforhodamine B assay; settings: RXF 393, 48 h, read-out: GI
SK-OV-3 = experiment: Growth inhibition of human SKOV3 cells at 10^-5 M incubated for 48 hrs by sulforhodamine B assay; settings: SK-OV-3, 48 h, read-out: GI
Malme-3M = experiment: Growth inhibition of human MALME-3M cells at 10^-5 M incubated for 48 hrs by sulforhodamine B assay; settings: read-out: GI
OVCAR-5 = experiment: Growth inhibition of human OVCAR5 cells at 10^-5 M incubated for 48 hrs by sulforhodamine B assay; settings: OVCAR-5, 48 h, read-out: GI
OVCAR-8 = experiment: Growth inhibition of human OVCAR8 cells at 10^-5 M incubated for 48 hrs by sulforhodamine B assay; settings: OVCAR-8, 48 h, read-out: GI
SK-MEL-5 = experiment: Growth inhibition of human SK-MEL-5 cells at 10^-5 M incubated for 48 hrs by sulforhodamine B assay; settings: SK-MEL-5, 48 h, read-out: GI
SNB-75 = experiment: Growth inhibition of human SNB75 cells at 10^-5 M incubated for 48 hrs by sulforhodamine B assay; settings: SNB-75, 48 h, read-out: GI
Hs-578T = experiment: Growth inhibition of human Hs 578T cells at 10^-5 M incubated for 48 hrs by sulforhodamine B assay; settings: read-out: GI
NCI-H226 = experiment: Growth inhibition of human NCI-H226 cells at 10^-5 M incubated for 48 hrs by sulforhodamine B assay; settings: NCI-H226, 48 h, read-out: GI
TK-10 = experiment: Growth inhibition of human TK10 cells at 10^-5 M incubated for 48 hrs by sulforhodamine B assay; settings: TK-10, 48 h, read-out: GI
HT-29 = experiment: Growth inhibition of human HT-29 cells at 10^-5 M incubated for 48 hrs by sulforhodamine B assay; settings: HT-29, 48 h, read-out: GI
A549 = experiment: Growth inhibition of human A549/ATCC cells at 10^-5 M incubated for 48 hrs by sulforhodamine B assay; settings: A549, 48 h, read-out: GI
SN12C = experiment: Growth inhibition of human SN12C cells at 10^-5 M incubated for 48 hrs by sulforhodamine B assay; settings: read-out: GI
MDA-MB-468 = experiment: Growth inhibition of human MDA-MB-468 cells at 10^-5 M incubated for 48 hrs by sulforhodamine B assay; settings: MDA-MB-468, 48 h, read-out: GI
MDA-MB-231 = experiment: Growth inhibition of human MDA-MB-231 cells at 10^-5 M incubated for 48 hrs by sulforhodamine B assay; settings: MDA-MB-231, 48 h, read-out: GI
BT-549 = experiment: Growth inhibition of human BT549 cells at 10^-5 M incubated for 48 hrs by sulforhodamine B assay; settings: BT-549, 48 h, read-out: GI
NCI/ADR-RES = experiment: Growth inhibition of human NCI/ADR-RES cells at 10^-5 M incubated for 48 hrs by sulforhodamine B assay; settings: read-out: GI
PC-3 = experiment: Growth inhibition of human PC3 cells at 10^-5 M incubated for 48 hrs by sulforhodamine B assay; settings: PC-3, 48 h, read-out: GI
SF-268 = experiment: Growth inhibition of human SF268 cells at 10^-5 M incubated for 48 hrs by sulforhodamine B assay; settings: SF-268, 48 h, read-out: GI
IGROV-1 = experiment: Growth inhibition of human IGROV1 cells at 10^-5 M incubated for 48 hrs by sulforhodamine B assay; settings: IGROV-1, 48 h, read-out: GI
UACC-257 = experiment: Growth inhibition of human UACC257 cells at 10^-5 M incubated for 48 hrs by sulforhodamine B assay; settings: UACC-257, 48 h, read-out: GI
SR = experiment: Growth inhibition of human SR cells at 10^-5 M incubated for 48 hrs by sulforhodamine B assay; settings: read-out: GI
CAKI-1 = experiment: Growth inhibition of human Caki1 cells at 10^-5 M incubated for 48 hrs by sulforhodamine B assay; settings: CAKI-1, 48 h, read-out: GI

SMILES: O=C1CSC2=Nc3c(sc4ccc(Cl)cc34)C(c3ccc4ccccc4c3)N12 (stereo not drawn)
- inhibition of growth at 10 µM (COLO 205): -3.73%
- inhibition of growth at 10 µM (M14): 6.91%
- inhibition of growth at 10 µM (UACC-62): 15.7%
- inhibition of growth at 10 µM (HCC 2998): -30.1%
- inhibition of growth at 10 µM (NCI-H322M): 6.48%
- inhibition of growth at 10 µM (DU-145): -8.09%
- inhibition of growth at 10 µM (EKVX): 7.05%
- inhibition of growth at 10 µM (U-251): -7.94%
- inhibition of growth at 10 µM (OVCAR-3): -0.24%
- inhibition of growth at 10 µM (HOP-92): 6.48%
- inhibition of growth at 10 µM (MCF7): 27.3%
- inhibition of growth at 10 µM (ACHN): 7.81%
- inhibition of growth at 10 µM (SW-620): -3.91%
- inhibition of growth at 10 µM (NCI-H23): 14.1%
- inhibition of growth at 10 µM (K562): 7.65%
- inhibition of growth at 10 µM (A498): 20%
- inhibition of growth at 10 µM (RXF 393): -5.09%
- inhibition of growth at 10 µM (SK-OV-3): 10.3%
- inhibition of growth at 10 µM (Malme-3M): 4.51%
- inhibition of growth at 10 µM (OVCAR-5): 1.49%
- inhibition of growth at 10 µM (OVCAR-8): 3.28%
- inhibition of growth at 10 µM (SK-MEL-5): 2.92%
- inhibition of growth at 10 µM (SNB-75): 16.8%
- inhibition of growth at 10 µM (Hs-578T): -0.18%
- inhibition of growth at 10 µM (NCI-H226): 16.7%
- inhibition of growth at 10 µM (TK-10): -19.4%
- inhibition of growth at 10 µM (HT-29): -0.5%
- inhibition of growth at 10 µM (A549): 4.93%
- inhibition of growth at 10 µM (SN12C): 9.96%
- inhibition of growth at 10 µM (MDA-MB-468): 2.47%
- inhibition of growth at 10 µM (MDA-MB-231): 19.7%
- inhibition of growth at 10 µM (BT-549): -8.05%
- inhibition of growth at 10 µM (NCI/ADR-RES): -1.46%
- inhibition of growth at 10 µM (PC-3): 7.88%
- inhibition of growth at 10 µM (SF-268): 10.3%
- inhibition of growth at 10 µM (IGROV-1): 10.4%
- inhibition of growth at 10 µM (UACC-257): 1.52%
- inhibition of growth at 10 µM (SR): 15.4%
- inhibition of growth at 10 µM (CAKI-1): 27.5%

SMILES: CCOC(=O)CSC1=Nc2c(sc3ccc(Cl)cc23)C(c2cccc([N+](=O)[O-])c2)N1 (stereo not drawn)
- inhibition of growth at 10 µM (COLO 205): -3.41%
- inhibition of growth at 10 µM (M14): -3.62%
- inhibition of growth at 10 µM (UACC-62): 6.62%
- inhibition of growth at 10 µM (HCC 2998): -16.9%
- inhibition of growth at 10 µM (NCI-H322M): 7.77%
- inhibition of growth at 10 µM (DU-145): -8.66%
- inhibition of growth at 10 µM (EKVX): 15.9%
- inhibition of growth at 10 µM (U-251): 3.38%
- inhibition of growth at 10 µM (OVCAR-3): 0.63%
- inhibition of growth at 10 µM (HOP-92): -10.1%
- inhibition of growth at 10 µM (MCF7): 20.1%
- inhibition of growth at 10 µM (ACHN): 6.61%
- inhibition of growth at 10 µM (SW-620): -4.96%
- inhibition of growth at 10 µM (NCI-H23): 9.36%
- inhibition of growth at 10 µM (K562): 10.3%
- inhibition of growth at 10 µM (A498): 6.9%
- inhibition of growth at 10 µM (RXF 393): -12.8%
- inhibition of growth at 10 µM (SK-OV-3): 8.27%
- inhibition of growth at 10 µM (Malme-3M): 5.55%
- inhibition of growth at 10 µM (OVCAR-5): -1.2%
- inhibition of growth at 10 µM (OVCAR-8): -1.34%
- inhibition of growth at 10 µM (SK-MEL-5): 3.95%
- inhibition of growth at 10 µM (SNB-75): 11.3%
- inhibition of growth at 10 µM (Hs-578T): -3.04%
- inhibition of growth at 10 µM (NCI-H226): 8.28%
- inhibition of growth at 10 µM (TK-10): -16.2%
- inhibition of growth at 10 µM (HT-29): -15.9%
- inhibition of growth at 10 µM (A549): 2.51%
- inhibition of growth at 10 µM (SN12C): 2.9%
- inhibition of growth at 10 µM (MDA-MB-468): -24.4%
- inhibition of growth at 10 µM (MDA-MB-231): 9.26%
- inhibition of growth at 10 µM (BT-549): -12.4%
- inhibition of growth at 10 µM (NCI/ADR-RES): 1.65%
- inhibition of growth at 10 µM (PC-3): 9.33%
- inhibition of growth at 10 µM (SF-268): 3.8%
- inhibition of growth at 10 µM (IGROV-1): 21.6%
- inhibition of growth at 10 µM (UACC-257): 2.03%
- inhibition of growth at 10 µM (SR): 21.4%
- inhibition of growth at 10 µM (CAKI-1): 16.5%
